This note sets out measurements from patent US7459585B2, “Benzene derivatives and pharmaceutical use thereof” (Ajinomoto Co., Inc., priority 1998, dated 2008).

≈ marks a conversion by molar mass, not a printed value.

Broadly, the IC50 is the concentration that inhibits the measured activity by half.

The test system of this test is NF-kappa B. Description: Evaluation of NF-kappa B inhibition (β-gal reporter, IL-1β-induced). It is filed as cell-based. Conditions: Homo sapiens; β-gal reporter with NF-kappa B binding motif in SV40 large T-immortalized HUVEC; induced with 1 ng/ml IL-1β; read-out: NF-kB inhibiting activity IC50. The protocol: Cells used for the tests were those prepared by stably introducing E. coli β-galactosidase (β-gal) genes driven by SV 40 minimum promoter fused with 4 tandems of the AP-1 binding motif derived from human MMP-1 gene enhancer into human normal umbilical cord vein endothelial cells (HUVEC) immortalized with SV 40 large T antigen. The cells were subcultured in RPMI medium containing 10% of FBS, and were seeded on a 96-well plate in a concentration of 1×10^4/well on a day before the start of the experiments. A compound of the present invention was dissolved in DMSO to obtain a solution of a proper concentration, which was added into the 96-well plate so that the final DMSO concentration would be not higher than 1%. 30 minutes after the addition of the compound, phorbol-12-myristate-13-acetate (PMA) was added to each well so as to obtain the final concentration of 50 ng/ml. β-gal activity was determined 16 hours after with a chemiluminescent substrate (Galacton-Light-Plus: Boehringer Mannheim) according to a protocol attached to the reagent. A Luminescence detector (ATTO) was used for the determination.
The tests were carried out in the same manner as that of Example 56. Concretely, the AP-1 binding motif of the reporter genes in Example 56 was replaced with the NF-kappa B binding motif derived from immunoglobulin kappa light chain enhancer, and NF-kappa B transcriptional activity was induced with 1 ng/ml of IL-1β in place of PMA.
With `CC1(C)CC1C(=O)Nc1ccc(C(=O)c2ccc(NC(=O)C3CC3(C)C)cc2)cc1` (centres unmarked) [Compound 1], the IC50 was greater than 5 µg/mL.
The figure for `CC1(C)CC1C(=O)Nc1ccc(Sc2ccc(NC(=O)C3CC3(C)C)cc2)cc1` (centres unmarked) [Compound 2] is 0.1 µg/mL (≈ 0.245 µM).
As for `CC1(C)CC1C(=O)Nc1ccc(Nc2ccc(NC(=O)C3CC3(C)C)cc2)cc1` (centres unmarked) [Compound 3], the concentration for half-maximal inhibition (IC50) amounted to 1 µg/mL (≈ 2.55 µM).
For `CC1(C)CC1C(=O)Nc1ccc(Oc2ccc(NC(=O)C3CC3(C)C)cc2)cc1` (centres unmarked) [Compound 4] the value was 1.1 µg/mL (≈ 2.8 µM); for `CC1(C)CC1C(=O)Nc1ccc(S(=O)(=O)c2ccc(NC(=O)C3CC3(C)C)cc2)cc1` (centres unmarked) [Compound 5], greater than 5 µg/mL.
In the case of `CC1(C)CC1C(=O)Nc1ccc(CCc2ccc(NC(=O)C3CC3(C)C)cc2)cc1` (centres unmarked) [Compound 6], the IC50 was found to be 0.37 µg/mL (≈ 0.915 µM).
The figure for `CC1(C)CC1C(=O)Nc1ccc(Cc2cccc(NC(=O)C3CC3(C)C)c2)cc1` (centres unmarked) [Compound 7] is 0.37 µg/mL (≈ 0.947 µM); for `CC1(C)CC1C(=O)Nc1ccc(C(=NO)c2ccc(NC(=O)C3CC3(C)C)cc2)cc1` (centres unmarked) [Compound 8] it is 5 µg/mL (≈ 11.9 µM).
As for `CC1(C)CC1C(=O)Nc1ccc(C(N)c2ccc(NC(=O)C3CC3(C)C)cc2)cc1` (centres unmarked) [Compound 9], the IC50 worked out at 2.5 µg/mL (≈ 6.16 µM).
The figure for `CC(=O)NC(c1ccc(NC(=O)C2CC2(C)C)cc1)c1ccc(NC(=O)C2CC2(C)C)cc1` (centres unmarked) [Compound 10] is greater than 5 µg/mL; for `CC1(C)CC1C(=O)Nc1ccc(C(O)c2ccc(NC(=O)C3CC3(C)C)cc2)cc1` (centres unmarked) [Compound 11] it is 0.12 µg/mL (≈ 0.295 µM).
For `COC(c1ccc(NC(=O)C2CC2(C)C)cc1)c1ccc(NC(=O)C2CC2(C)C)cc1` (centres unmarked) [Compound 12] the value was greater than 5 µg/mL; for `CC1(C)CC1C(=O)Nc1ccc(C(CN=[N+]=[N-])c2ccc(NC(=O)C3CC3(C)C)cc2)cc1` (centres unmarked) [Compound 17], 2.5 µg/mL (≈ 5.61 µM); for `CC1(C)CC1C(=O)Nc1ccc(C(CN)c2ccc(NC(=O)C3CC3(C)C)cc2)cc1` (centres unmarked) [Compound 18], 3 µg/mL (≈ 7.15 µM).
For `CC1(C)CC1C(=O)Nc1ccc(C(CC#N)c2ccc(NC(=O)C3CC3(C)C)cc2)cc1` (centres unmarked) [Compound 19] the value was 1.2 µg/mL (≈ 2.79 µM); for `CC1(C)CC1C(=O)Nc1ccc(C(CC(=O)O)c2ccc(NC(=O)C3CC3(C)C)cc2)cc1` (centres unmarked) [Compound 20], 3 µg/mL (≈ 6.69 µM); for `CC1(C)CC1C(=O)Nc1ccc(Cc2ccc(NC(=O)C3CC3(Cl)Cl)cc2)cc1` (centres unmarked) [Compound 23], 0.1 µg/mL (≈ 0.232 µM).
Turning to `COc1ccc(CC(=O)Nc2ccc(Cc3ccc(NC(=O)C4CC4(C)C)cc3)cc2)cc1` (centres unmarked) [Compound 24], the IC50 was 0.1 µg/mL (≈ 0.226 µM).
As to `CN(C)c1ccc(CC(=O)Nc2ccc(Cc3ccc(NC(=O)C4CC4(C)C)cc3)cc2)cc1` (centres unmarked) [Compound 25], the half-inhibitory concentration (IC50) is 0.03 µg/mL (≈ 0.0658 µM).
The figure for `COc1ccc(CCC(=O)Nc2ccc(Cc3ccc(NC(=O)C4CC4(C)C)cc3)cc2)cc1` (centres unmarked) [Compound 26] is 0.1 µg/mL (≈ 0.219 µM).
The figure for `COc1ccc(CCNc2ccc(Cc3ccc(NC(=O)C4CC4(C)C)cc3)cc2)cc1` (centres unmarked) [Compound 27] is 0.1 µg/mL (≈ 0.233 µM).
For `COc1ccc(CCCNc2ccc(Cc3ccc(NC(=O)C4CC4(C)C)cc3)cc2)cc1` (centres unmarked) [Compound 28] the value was 0.1 µg/mL (≈ 0.226 µM); for `CC1(C)C[C@@H]1C(=O)Nc1ccc(C(O)c2ccc(NC(=O)[C@@H]3CC3(C)C)cc2)cc1` (some centres unmarked) [Compound 34], 0.06 µg/mL (≈ 0.148 µM); for `CC1(C)C[C@H]1C(=O)Nc1ccc(C(O)c2ccc(NC(=O)[C@@H]3CC3(C)C)cc2)cc1` [Compound 35], greater than 5 µg/mL.
Consider `Cc1cc(Cc2ccc(NC(=O)C3CC3(C)C)c(C)c2)ccc1NC(=O)C1CC1(C)C` (centres unmarked) [Compound 38], for which the half-inhibitory concentration (IC50) was 0.5 µg/mL (≈ 1.19 µM).
The figure for `CC1(C)CC1C(=O)Nc1ccc(Cc2ccc(N3C(=O)C4C5C=CC(C5)C4C3=O)cc2)cc1` (centres unmarked) [Compound 40] is 1 µg/mL (≈ 2.27 µM).
The figure for `CC1(C)CC1C(=O)Nc1ccc(Cc2ccc(NC(=O)C3CCCN3)cc2)cc1` (centres unmarked) [Compound 43] is 0.1 µg/mL (≈ 0.255 µM); for `CC1(C)CC1C(=O)Nc1ccc(C(O)c2ccc(NC(=O)Cc3ccc(Cl)cc3)cc2)cc1` (centres unmarked) [Compound 44] it is 1.5 µg/mL (≈ 3.24 µM); for `COc1ccc(CC(=O)Nc2ccc(C(O)c3ccc(NC(=O)C4CC4(C)C)cc3)cc2)cc1` (centres unmarked) [Compound 45] it is 0.9 µg/mL (≈ 1.96 µM).
The figure for `CC1(C)CC1C(=O)Nc1ccc(COc2ccc(NC(=O)C3CC3(C)C)cc2)cc1` (centres unmarked) [Compound 51] is 1 µg/mL (≈ 2.46 µM); for `CC1(C)CC1C(=O)Nc1ccc(CSc2ccc(NC(=O)C3CC3(C)C)cc2)cc1` (centres unmarked) [Compound 52] it is 0.2 µg/mL (≈ 0.473 µM); for `COc1ccc(CCCC(=O)Nc2ccc(Cc3ccc(NC(=O)C4CC4(C)C)cc3)cc2)cc1` (centres unmarked) [Compound 55] it is 0.1 µg/mL (≈ 0.212 µM).
